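Growth conditions: 96-well plates. Treatment: test compound, 48 hours, 5 concentrations. Analysis: linear interpolation between bracketing concentrations; unreached endpoints set to highest concentration. At the GI50, growth is halved.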 Active and inactive are the calls of the source. No stated cut-off is given here; in the data, active = GI50 up to about 1.1 µM and inactive = higher.
Legend:
Assay in all cases: inhibition of tumour cell growth, NCI panel, 48 h
A498 = test system: A498
EKVX = test system: EKVX
MCF7 = test system: MCF7
T47D = test system: T47D
TK-10 = test system: TK-10
MDA-N = test system: MDA-N
SNB-75 = test system: SNB-75
NCI-H226 = test system: NCI-H226
NCI-H460 = test system: NCI-H460
SR = test system: SR
SW-620 = test system: SW-620
OVCAR-8 = test system: OVCAR-8
SF-295 = test system: SF-295
CCRF-CEM = test system: CCRF-CEM
SK-MEL-5 = test system: SK-MEL-5
MDA-MB-435 = test system: MDA-MB-435
A549 = test system: A549
DU-145 = test system: DU-145
HT-29 = test system: HT-29

CC(=O)c1ccc(Oc2c3ccccc3nc3ccccc23)cc1
GI50 (A498): 16.1 µM (inactive) | GI50 (EKVX): 17.5 µM (inactive) | GI50 (MCF7): 3.22 µM (inactive) | GI50 (T47D): 3.72 µM (inactive) | GI50 (TK-10): 6.76 µM (inactive) | GI50 (MDA-N): 4.27 µM (inactive) | GI50 (SNB-75): 16.1 µM (inactive) | GI50 (NCI-H226): 9.1 µM (inactive) | GI50 (NCI-H460): 15.4 µM (inactive) | GI50 (SR): 1.01 µM (active) | GI50 (SW-620): 4.33 µM (inactive) | GI50 (OVCAR-8): 7.83 µM (inactive) | GI50 (SF-295): 14.6 µM (inactive) | GI50 (CCRF-CEM): 2.82 µM (inactive) | GI50 (SK-MEL-5): 14.9 µM (inactive) | GI50 (MDA-MB-435): 3.27 µM (inactive) | GI50 (A549): 9.35 µM (inactive) | GI50 (DU-145): 4.5 µM (inactive) | GI50 (HT-29): 2.73 µM (inactive)

COc1ncnc2c(Cl)c(C(O)c3ccccc3)c(Cl)cc12 (configuration not stated)
GI50 (A498): 19.7 µM (inactive) | GI50 (EKVX): 30.5 µM (inactive) | GI50 (MCF7): 31.4 µM (inactive) | GI50 (T47D): 40.1 µM (inactive) | GI50 (TK-10): 23 µM (inactive) | GI50 (MDA-N): 5.16 µM (inactive) | GI50 (SNB-75): 22.4 µM (inactive) | GI50 (NCI-H460): 30.8 µM (inactive) | GI50 (SR): 3.5 µM (inactive) | GI50 (SW-620): 25.6 µM (inactive) | GI50 (OVCAR-8): 30.5 µM (inactive) | GI50 (SF-295): 24.4 µM (inactive) | GI50 (SK-MEL-5): 26.2 µM (inactive) | GI50 (MDA-MB-435): 5.57 µM (inactive) | GI50 (A549): 34.8 µM (inactive) | GI50 (DU-145): 60.4 µM (inactive) | GI50 (HT-29): 30.1 µM (inactive)

CCC1=NC(N/N=C/c2ccco2)=N/C1=C\c1ccccc1O
GI50 (A498): 68.9 µM (inactive) | GI50 (EKVX): 26.7 µM (inactive) | GI50 (MCF7): 17.9 µM (inactive) | GI50 (T47D): 48.9 µM (inactive) | GI50 (TK-10): 59.4 µM (inactive) | GI50 (MDA-N): 50.4 µM (inactive) | GI50 (NCI-H226): 28.4 µM (inactive) | GI50 (NCI-H460): 14.9 µM (inactive) | GI50 (SR): 48.4 µM (inactive) | GI50 (SW-620): 63.4 µM (inactive) | GI50 (OVCAR-8): 25.4 µM (inactive) | GI50 (SF-295): 44.2 µM (inactive) | GI50 (CCRF-CEM): 12.7 µM (inactive) | GI50 (SK-MEL-5): 27.2 µM (inactive) | GI50 (MDA-MB-435): 29.5 µM (inactive) | GI50 (A549): 41.1 µM (inactive) | GI50 (DU-145): 55.6 µM (inactive) | GI50 (HT-29): 36 µM (inactive)

COc1ccc(OC)c2c1-c1nnnn1CCC2(C)C
GI50 (A498): > 100 µM (inactive) | GI50 (EKVX): > 100 µM (inactive) | GI50 (MCF7): > 100 µM (inactive) | GI50 (T47D): > 100 µM (inactive) | GI50 (TK-10): > 100 µM (inactive) | GI50 (MDA-N): > 100 µM (inactive) | GI50 (SNB-75): > 100 µM (inactive) | GI50 (NCI-H226): > 100 µM (inactive) | GI50 (NCI-H460): > 100 µM (inactive) | GI50 (SR): > 100 µM (inactive) | GI50 (SW-620): > 100 µM (inactive) | GI50 (OVCAR-8): > 100 µM (inactive) | GI50 (SF-295): > 100 µM (inactive) | GI50 (CCRF-CEM): > 100 µM (inactive) | GI50 (MDA-MB-435): > 100 µM (inactive) | GI50 (DU-145): > 100 µM (inactive) | GI50 (HT-29): > 100 µM (inactive)

O=S1(=O)Cc2ccc3c4c2-c2c(ccc5ccc(c-4c25)CS(=O)(=O)C3)C1
GI50 (A498): > 100 µM (inactive) | GI50 (EKVX): 89.1 µM (inactive) | GI50 (MCF7): 92.3 µM (inactive) | GI50 (T47D): 55.3 µM (inactive) | GI50 (TK-10): 79.6 µM (inactive) | GI50 (MDA-N): > 100 µM (inactive) | GI50 (SNB-75): 69.7 µM (inactive) | GI50 (NCI-H226): > 100 µM (inactive) | GI50 (NCI-H460): 63.2 µM (inactive) | GI50 (SR): 10.2 µM (inactive) | GI50 (SW-620): 71 µM (inactive) | GI50 (OVCAR-8): 90.2 µM (inactive) | GI50 (SF-295): > 100 µM (inactive) | GI50 (MDA-MB-435): > 100 µM (inactive) | GI50 (A549): > 100 µM (inactive) | GI50 (DU-145): > 100 µM (inactive) | GI50 (HT-29): 57 µM (inactive)

CCOC(=O)c1cn(CC)c2cc3c(cc2c1=O)CCS3(=O)=O
GI50 (A498): > 100 µM (inactive) | GI50 (EKVX): > 100 µM (inactive) | GI50 (MCF7): > 100 µM (inactive) | GI50 (T47D): > 100 µM (inactive) | GI50 (TK-10): > 100 µM (inactive) | GI50 (MDA-N): > 100 µM (inactive) | GI50 (NCI-H226): > 100 µM (inactive) | GI50 (NCI-H460): > 100 µM (inactive) | GI50 (SR): > 100 µM (inactive) | GI50 (SW-620): > 100 µM (inactive) | GI50 (OVCAR-8): > 100 µM (inactive) | GI50 (SF-295): > 100 µM (inactive) | GI50 (CCRF-CEM): > 100 µM (inactive) | GI50 (SK-MEL-5): > 100 µM (inactive) | GI50 (MDA-MB-435): > 100 µM (inactive) | GI50 (A549): > 100 µM (inactive) | GI50 (DU-145): > 100 µM (inactive) | GI50 (HT-29): > 100 µM (inactive)

O=C(NC1(C(=O)O)CC1c1ccccc1)c1ccccc1 (configuration not stated)
GI50 (A498): > 100 µM (inactive) | GI50 (EKVX): > 100 µM (inactive) | GI50 (MCF7): > 100 µM (inactive) | GI50 (T47D): > 100 µM (inactive) | GI50 (TK-10): > 100 µM (inactive) | GI50 (MDA-N): > 100 µM (inactive) | GI50 (SNB-75): > 100 µM (inactive) | GI50 (NCI-H226): > 100 µM (inactive) | GI50 (NCI-H460): > 100 µM (inactive) | GI50 (SR): > 100 µM (inactive) | GI50 (SW-620): > 100 µM (inactive) | GI50 (OVCAR-8): > 100 µM (inactive) | GI50 (SF-295): > 100 µM (inactive) | GI50 (MDA-MB-435): > 100 µM (inactive) | GI50 (A549): > 100 µM (inactive) | GI50 (DU-145): > 100 µM (inactive) | GI50 (HT-29): > 100 µM (inactive)

Cc1ccc(/N=C2/C(c3ccccc3)=C(SC3=C(c4ccccc4)/C(=N/c4ccc(C)cc4)c4ccccc43)c3ccccc32)cc1
GI50 (A498): 15.2 µM (inactive) | GI50 (EKVX): 19.1 µM (inactive) | GI50 (MCF7): 27.1 µM (inactive) | GI50 (T47D): 33.3 µM (inactive) | GI50 (TK-10): 31.9 µM (inactive) | GI50 (MDA-N): 97.7 µM (inactive) | GI50 (SNB-75): 8.63 µM (inactive) | GI50 (NCI-H226): 24.4 µM (inactive) | GI50 (NCI-H460): 8.91 µM (inactive) | GI50 (SR): > 100 µM (inactive) | GI50 (SW-620): > 100 µM (inactive) | GI50 (OVCAR-8): 9.59 µM (inactive) | GI50 (SF-295): 12.5 µM (inactive) | GI50 (CCRF-CEM): > 100 µM (inactive) | GI50 (SK-MEL-5): 19.4 µM (inactive) | GI50 (MDA-MB-435): > 100 µM (inactive) | GI50 (A549): 32.9 µM (inactive) | GI50 (DU-145): 32.1 µM (inactive) | GI50 (HT-29): 24.6 µM (inactive)

From ChEMBL document CHEMBL1201862, “PubChem BioAssay data set” (2004)
